Data: ChEMBL document CHEMBL5329155, “Synthesis and pharmacological evaluation of 1,3-diaryl substituted pyrazole based (thio)urea derivatives as potent antimicrobial agents against multi-drug resistant Staphylococcus aureus and Mycobacterium tuberculosis” (RSC Med Chem, 2023)
pIC50: −log10 of the molar value. Values after ≈ are worked out from the molar mass of the structure shown.

Experiments:
Staphylococcus aureus [1] = experiment: Antibacterial activity against methicillin/ceftriaxone/meropenem resistant Staphylococcus aureus NRS 198 assessed as reduction in bacterial growth incubated for 18 to 24 hrs by broth dilution method; format: functional; conditions: time 18-24 hrs
[2] = system: Mycobacterium tuberculosis; experiment: Antimycobacterial activity against Mycobacterium tuberculosis H37Rv ATCC 27294 assessed as inhibition of bacterial growth incubated for 18 to 24 hrs by broth dilution method; format: functional
Staphylococcus aureus [3] = experiment: Antibacterial activity against methicillin-susceptible Staphylococcus aureus assessed as reduction in bacterial growth incubated for 18 to 24 hrs by broth dilution method; format: functional; conditions: time 18-24 hrs
Staphylococcus aureus [4] = experiment: Antibacterial activity against methicillin/ceftriaxone/meropenem resistant Staphylococcus aureus NRS 186 assessed as reduction in bacterial growth incubated for 18 to 24 hrs by broth dilution method; format: functional; conditions: time 18-24 hrs
Staphylococcus aureus [5] = experiment: Antibacterial activity against methicillin/ceftriaxone/meropenem resistant Staphylococcus aureus NRS 193 assessed as reduction in bacterial growth incubated for 18 to 24 hrs by broth dilution method; format: functional; conditions: time 18-24 hrs
Staphylococcus aureus [6] = experiment: Antibacterial activity against methicillin/ceftriaxone/meropenem resistant Staphylococcus aureus NRS 192 assessed as reduction in bacterial growth incubated for 18 to 24 hrs by broth dilution method; format: functional; conditions: time 18-24 hrs
Staphylococcus aureus [7] = experiment: Antibacterial activity against methicillin/ceftriaxone/meropenem resistant Staphylococcus aureus NRS 129 assessed as reduction in bacterial growth incubated for 18 to 24 hrs by broth dilution method; format: functional; conditions: time 18-24 hrs
Staphylococcus aureus [8] = experiment: Antibacterial activity against methicillin/ceftriaxone/meropenem/gentamycin/vancomycin/teicoplanin resistant Staphylococcus aureus VRS 1 assessed as reduction in bacterial growth incubated for 18 to 24 hrs by broth dilution method; format: functional; conditions: time 18-24 hrs
Staphylococcus aureus [9] = experiment: Antibacterial activity against methicillin/ceftriaxone/meropenem/gentamycin/linezolid resistant Staphylococcus aureus NRS 100 assessed as reduction in bacterial growth incubated for 18 to 24 hrs by broth dilution method; format: functional; conditions: time 18-24 hrs
Staphylococcus aureus [10] = experiment: Antibacterial activity against methicillin/ceftriaxone/meropenem/vancomycin/teicoplanin resistant Staphylococcus aureus VRS 4 assessed as reduction in bacterial growth incubated for 18 to 24 hrs by broth dilution method; format: functional; conditions: time 18-24 hrs
Staphylococcus aureus [11] = experiment: Antibacterial activity against methicillin/ceftriaxone/meropenem/gentamycin/linezolid resistant Staphylococcus aureus NRS 119 assessed as reduction in bacterial growth incubated for 18 to 24 hrs by broth dilution method; format: functional; conditions: time 18-24 hrs
Staphylococcus aureus [12] = experiment: Antibacterial activity against Staphylococcus aureus ATCC 29213 assessed as inhibition of bacterial growth measured for 18 to 24 hrs by broth dilution method; format: functional; conditions: time 18-24 hrs
Staphylococcus aureus [13] = experiment: Antibacterial activity against methicillin/ceftriaxone/meropenem resistant Staphylococcus aureus NRS 191 assessed as reduction in bacterial growth incubated for 18 to 24 hrs by broth dilution method; format: functional; conditions: time 18-24 hrs
Staphylococcus aureus [14] = experiment: Antibacterial activity against methicillin/ceftriaxone resistant Staphylococcus aureus NRS 194 assessed as reduction in bacterial growth incubated for 18 to 24 hrs by broth dilution method; format: functional; conditions: time 18-24 hrs
Staphylococcus aureus [15] = experiment: Antibacterial activity against methicillin/ceftriaxone/meropenem/vancomycin/teicoplanin resistant Staphylococcus aureus VRS 12 assessed as reduction in bacterial growth incubated for 18 to 24 hrs by broth dilution method; format: functional; conditions: time 18-24 hrs
[16] = system: Mycobacterium tuberculosis; experiment: Antimycobacterial activity against rifampicin-resisitant Mycobacterium tuberculosis ATCC 35838 assessed as inhibition of bacterial growth incubated for 18 to 24 hrs by broth dilution method; format: functional; conditions: time 18-24 hrs
[17] = system: Mycobacterium tuberculosis; experiment: Antimycobacterial activity against ethambutol-resisitant Mycobacterium tuberculosis ATCC 35837 assessed as inhibition of bacterial growth incubated for 18 to 24 hrs by broth dilution method; format: functional; conditions: time 18-24 hrs
[18] = system: Mycobacterium tuberculosis; experiment: Antimycobacterial activity against isoniazid-resisitant Mycobacterium tuberculosis ATCC 35822 assessed as inhibition of bacterial growth incubated for 18 to 24 hrs by broth dilution method; format: functional; conditions: time 18-24 hrs
[19] = system: Mycobacterium tuberculosis; experiment: Antimycobacterial activity against streptomycin-resisitant Mycobacterium tuberculosis ATCC 35820 assessed as inhibition of bacterial growth incubated for 18 to 24 hrs by broth dilution method; format: functional; conditions: time 18-24 hrs
[20] = system: Mycobacterium tuberculosis; experiment: Antimycobacterial activity against Mycobacterium tuberculosis H37Rv assessed as reduction in bacterial growth; format: functional
DNA gyrase = DNA gyrase (Escherichia coli, UniProt P0AES4+P0AES6); experiment: Inhibition of Escherichia coli DNA gyrase; format: protein-complex assay
[21] = Selectivity index, ratio of CC50 for cytotoxicity against African green monkey Vero cells assessed as reduction in cell viability to MIC for antibacterial activity against Mycobacterium tuberculosis H37Rv ATCC 27294 assessed as inhibition of bacterial growth; format: toxicity, cell-based; conditions: read-out: Selectivity Index
[22] = Cytotoxicity against African green monkey Vero cells assessed as reduction in cell viability incubated for 72 hrs by MTT assay; format: toxicity, cell-based; conditions: chlorocebus sabaeus

C[C@H]1COc2c(N3CCN(C)CC3)c(F)cc3c(=O)c(C(=O)O)cn1c23 [LEVOFLOXACIN ANHYDROUS]
MIC (Staphylococcus aureus [1]): 32 µg/mL (≈ 88.6 µM) | MIC [2]: 0.25 µg/mL (≈ 0.692 µM) | MIC (Staphylococcus aureus [3]): 0.25 µg/mL (≈ 0.692 µM) | MIC (Staphylococcus aureus [4]): 4 µg/mL (≈ 11.1 µM) | MIC (Staphylococcus aureus [5]): 32 µg/mL (≈ 88.6 µM) | MIC (Staphylococcus aureus [6]): 8 µg/mL (≈ 22.1 µM) | MIC (Staphylococcus aureus [7]): 0.25 µg/mL (≈ 0.692 µM) | MIC (Staphylococcus aureus [8]): 32 µg/mL (≈ 88.6 µM) | MIC (Staphylococcus aureus [9]): 0.25 µg/mL (≈ 0.692 µM) | MIC (Staphylococcus aureus [10]): 32 µg/mL (≈ 88.6 µM) | MIC (Staphylococcus aureus [11]): 16 µg/mL (≈ 44.3 µM) | MIC (Staphylococcus aureus [12]): 0.25 µg/mL (≈ 0.692 µM) | MIC (Staphylococcus aureus [13]): 16 µg/mL (≈ 44.3 µM) | MIC (Staphylococcus aureus [14]): 0.25 µg/mL (≈ 0.692 µM) | MIC (Staphylococcus aureus [15]): 32 µg/mL (≈ 88.6 µM)

CO[C@H]1/C=C/O[C@@]2(C)Oc3c(C)c(O)c4c(O)c(c(/C=N/N5CCN(C)CC5)c(O)c4c3C2=O)NC(=O)/C(C)=C\C=C\[C@H](C)[C@H](O)[C@@H](C)[C@@H](O)[C@@H](C)[C@H](OC(C)=O)[C@@H]1C [RIFAMPIN]
MIC [2]: 0.06 µg/mL (≈ 0.0729 µM) | MIC [16]: 64 µg/mL (≈ 77.8 µM) | MIC [17]: 0.03 µg/mL (≈ 0.0365 µM) | MIC [18]: 0.03 µg/mL (≈ 0.0365 µM) | MIC [19]: 0.03 µg/mL (≈ 0.0365 µM)

CC[C@@H](CO)NCCN[C@@H](CC)CO [ETHAMBUTOL]
MIC [2]: 2 µg/mL (≈ 9.79 µM) | MIC [16]: 2 µg/mL (≈ 9.79 µM) | MIC [17]: 32 µg/mL (≈ 157 µM) | MIC [18]: 4 µg/mL (≈ 19.6 µM) | MIC [19]: 2 µg/mL (≈ 9.79 µM)

CN[C@@H]1[C@H](O[C@H]2[C@H](O[C@H]3[C@H](O)[C@@H](O)[C@H](N=C(N)N)[C@@H](O)[C@@H]3N=C(N)N)O[C@@H](C)[C@]2(O)C=O)O[C@@H](CO)[C@H](O)[C@H]1O [STREPTOMYCIN]
MIC [2]: 1 µg/mL (≈ 1.72 µM) | MIC [16]: 1 µg/mL (≈ 1.72 µM) | MIC [17]: 1 µg/mL (≈ 1.72 µM) | MIC [18]: 1 µg/mL (≈ 1.72 µM) | MIC [19]: > 64 µg/mL

O=C(Nc1ccc(-n2ccc(-c3cc4ccccc4o3)n2)cc1)c1cc([N+](=O)[O-])cc([N+](=O)[O-])c1
MIC [20]: 0.03 µg/mL (≈ 0.0639 µM)

NNC(=O)c1ccncc1 [ISONIAZID]
MIC [2]: 0.03 µg/mL (≈ 0.219 µM) | MIC [16]: 0.03 µg/mL (≈ 0.219 µM) | MIC [17]: 0.03 µg/mL (≈ 0.219 µM) | MIC [18]: > 64 µg/mL | MIC [19]: 0.03 µg/mL (≈ 0.219 µM)

C[C@@H](O)[C@H]1C(=O)N2C(C(=O)O)=C(S[C@@H]3CN[C@H](C(=O)N(C)C)C3)[C@H](C)[C@H]12 [MEROPENEM]
MIC (Staphylococcus aureus [1]): 64 µg/mL (≈ 167 µM) | MIC (Staphylococcus aureus [3]): 0.125 µg/mL (≈ 0.326 µM) | MIC (Staphylococcus aureus [4]): 8 µg/mL (≈ 20.9 µM) | MIC (Staphylococcus aureus [5]): 64 µg/mL (≈ 167 µM) | MIC (Staphylococcus aureus [6]): 16 µg/mL (≈ 41.7 µM) | MIC (Staphylococcus aureus [7]): 8 µg/mL (≈ 20.9 µM) | MIC (Staphylococcus aureus [8]): 64 µg/mL (≈ 167 µM) | MIC (Staphylococcus aureus [9]): 64 µg/mL (≈ 167 µM) | MIC (Staphylococcus aureus [10]): 64 µg/mL (≈ 167 µM) | MIC (Staphylococcus aureus [11]): 64 µg/mL (≈ 167 µM) | MIC (Staphylococcus aureus [13]): 64 µg/mL (≈ 167 µM) | MIC (Staphylococcus aureus [14]): 2 µg/mL (≈ 5.22 µM) | MIC (Staphylococcus aureus [15]): 2 µg/mL (≈ 5.22 µM)

COc1ccc(Nc2n[nH]c(/N=C/c3ccc(N4CCCCC4)cc3)c2C(N)=O)cc1
pIC50 (DNA gyrase): 2.11

COC(=O)c1cc(-c2cccc(NC(=O)Nc3ccc(Cl)c(Cl)c3)c2)on1
MIC [20]: 0.25 µg/mL (≈ 0.615 µM)

CN[C@H](CC(C)C)C(=O)N[C@H]1C(=O)N[C@@H](CC(N)=O)C(=O)N[C@H]2C(=O)N[C@H]3C(=O)N[C@H](C(=O)N[C@H](C(=O)O)c4cc(O)cc(O)c4-c4cc3ccc4O)[C@H](O)c3ccc(c(Cl)c3)Oc3cc2cc(c3O[C@@H]2O[C@H](CO)[C@@H](O)[C@H](O)[C@H]2O[C@H]2C[C@](C)(N)[C@H](O)[C@H](C)O2)Oc2ccc(cc2Cl)[C@H]1O [VANCOMYCIN]
MIC (Staphylococcus aureus [8]): > 64 µg/mL | MIC (Staphylococcus aureus [10]): > 64 µg/mL | MIC (Staphylococcus aureus [15]): > 64 µg/mL

COc1ccc(-c2nn(-c3ccc(Cl)cc3)cc2Cn2cncn2)cc1
MIC [20]: 4.4 µg/mL (≈ 12 µM)

COc1ccc(-c2ccn(-c3ccc(NC(=O)NCc4ccccc4)cc3)n2)cc1OC
selectivity ratio [21]: 20 | MIC [2]: 1 µg/mL (≈ 2.33 µM) | CC50 at 72 h [22]: 20 µg/mL (≈ 46.7 µM) | MIC (Staphylococcus aureus [12]): > 64 µg/mL

O=C(Nc1ccc(-n2ccc(-c3ccc(Cl)cc3)n2)cc1)Nc1ccc(F)cc1F
MIC [2]: > 64 µg/mL | MIC (Staphylococcus aureus [12]): > 64 µg/mL

O=C(Nc1ccc(-n2ccc(-c3ccc(Cl)cc3)n2)cc1)Nc1ccc(Cl)c(Cl)c1
MIC [2]: 8 µg/mL (≈ 17.5 µM) | MIC (Staphylococcus aureus [12]): > 64 µg/mL
